From patent US20240093236A1, “RAPID HIGH THROUGHPUT SCREENING SYSTEM TO ASSESS POTENTIAL TREATMENTS FOR SPORADIC ALZHEIMER’S DISEASE” (Trustees of Tufts College, priority 2021, published 2024)
Entries after “also recorded” stand apart in the source; their conditions may differ. Structures can show the parent of a compound that is named as a salt.

Experiments:
HSV-1-infected hiNSCs [1] = assay: Aβ+ plaque-like formations (PLFs) in HSV-1-infected hiNSCs, immunostaining; type: cell-based, human; conditions: 200 μM VCV, MOI 0.0001, HCl
Procedure: (§1) hiNSC colonies were trypsinized off of MEF feeder layers using TrypLE (Invitrogen) and then dissociated by manual pipetting. Cell suspensions were passaged through a 40- to […] cell strainer to remove larger aggregates. Dissociated hiNSCs were cultured on gelatin-coated plates in neurobasal media supplemented with 2% B27 (Invitrogen), 1% glutamax, and 1% antibiotic-antimycotic. For HSV infection, we used purified HSV-1 to directly infect hiNSCs at a range of MOIs (0.00001 to 1), which was calculated based on the starting virus concentration (2×10^7 PFU/ml) and initial seeding density.
(§2) Once added to media, inoculum was allowed to remain in cell cultures for the duration of the experiment to mimic low-level brain infection. For mock infections, an equal volume of control culture medium from uninfected Vero cells was used. All virus work was approved by the Tufts Institutional Biosafety Committee. Valacyclovir (VCV) HCl was reconstituted in dH2O and used at a concentration of 200 μM for all subsequent experiments. VCV was added at day 0 (D0; concurrently with HSV-1 infection) or day 1 (D1; 24 hours after infection).
Cells grown in tissue culture plates or in 3D scaffolds were fixed in 4% paraformaldehyde and washed with 1×phosphate-buffered saline (PBS). Samples were incubated with a blocking buffer consisting of PBS, 10% goat serum, and 0.1% Triton X-100. […]

[2] = test system: APP, BACE1, PSEN1, and PSEN2; assay: qPCR expression of AD mediators (APP, BACE1, PSEN1, PSEN2) in HSV-1-infected hiNSCs; type: cell-based, human; conditions: HSV-1 MOI 0.0001
Procedure: as §1
(§3) Once added to media, inoculum was allowed to remain in cell cultures for the duration of the experiment to mimic low-level brain infection. For mock infections, an equal volume of control culture medium from uninfected Vero cells was used. All virus work was approved by the Tufts Institutional Biosafety Committee. Valacyclovir (VCV) HCl was reconstituted in dH2O and used at a concentration of 200 μM for all subsequent experiments. […]
(§4) Total RNA was isolated using the RNeasy Mini Kit (Qiagen). […] Quantitative reverse transcription PCR (qRT-PCR) was performed using SYBR Green and the CFX96 Real-Time PCR Detection System (Bio-Rad) and normalized against the housekeeping gene glyceraldehyde phosphate dehydrogenase. […]

HSV-1 = HSV-1 infection of hiNSCs with VCV treatment (HSV immunostaining, qPCR for HSV-UL29); type: cell-based, herpes simplex virus type 1
Procedure: as §1, §3, §4

HSV-1-infected hiNSCs [3] = assay: Gliosis and neuroinflammation (GFAP, TNFα) in HSV-1-infected hiNSCs, immunostaining and qPCR; type: cell-based, human
Procedure: as §1, §3, §4

hiNSCs [4] = assay: Conditioned media (CM) experiment: reactive glia formation in new hiNSCs, TUJ1 and GFAP immunostaining; type: cell-based, human; conditions: VCV in virus CM with fresh HSV-1; new hiNSCs cultured for 4 days
Procedure: Cells grown in tissue culture plates or in 3D scaffolds were fixed in 4% paraformaldehyde and washed with 1×phosphate-buffered saline (PBS). Samples were incubated with a blocking buffer consisting of PBS, 10% goat serum, and 0.1% Triton X-100. Primary antibodies were added to the blocking buffer and incubated with samples overnight at 4° C. The next day, samples were washed several times with PBS and incubated with a corresponding fluorescently conjugated secondary antibody in a blocking buffer for 1 hour at room temperature. Nuclei were counterstained with 4′,6-diamidino-2-phenylindole (Invitrogen).
Moreover, we aimed to understand whether HSV-1-secreted factors could cause gliosis even in the absence of infection (FIG. 7). CM were harvested and filtered from mock- or HSV-1-infected hiNSCs that had been cultured for 2 days. Fresh HSV-1 virus was added to CM in the absence or presence of antiviral treatment VCV, and new hiNSCs were cultured for 4 days. β-III tubulin (TUJ1) and GFAP immunostaining was performed to visualize neurons and glia, respectively.

HSV-1-infected hiNSCs [5] = assay: Latency model of HSV-1 infection in hiNSCs (acute infection followed by antiviral treatment), qPCR; type: cell-based, human; conditions: acute HSV-1 infection 24 hrs followed by antiviral treatment (latency induction)
Text: A) Schematic of timeline of HSV-1 and antiviral treatments to induce latency. Acute infection of hiNSCs with HSV-1 for 24 hrs. followed by antiviral treatment results in similar expression patterns of typical AD markers as described previously (B-D). E) This treatment also results in quantifiable expression of HSV-1 latency associated transcript (LAT).
HSV-1 typically lies latent in the peripheral nervous system indefinitely, and it is only upon reactivation that this virus can exert its detrimental effects such as cold sores and potentially neurodegeneration. Understanding potential triggers of this viral reactivation are crucial in elucidating downstream pathways involved in disease pathogenesis. There are currently few if any suitable in vitro models of HSV-1 latency. Here, we describe a method with which to induce latency of HSV-1 in vitro. […] Induction of latency with valacyclovir was also associated with an increase in glial fibrillary acidic protein (GFAP) expression (FIG. 21D), which is indicative of gliosis.

hiNSCs [6] = assay: VCV alone in the absence of virus on hiNSCs; type: cell-based, human; conditions: 200 μM VCV alone, no virus (data not shown)
Procedure: as §2
One of the most commonly used antiviral agents for treating HSV-1 infections is VCV, which specifically targets viral DNA replication in infected cells. We cultured hiNSCs for 4 days before subjecting to either mock or HSV-1 infection (MOI 0.0001). […] We first immunostained against HSV and Aβ (FIG. 4A) to determine any differences in the rate of HSV-1 infection and PLF generation in response to drug treatment.

SMILES: CC(C)[C@H](N)C(=O)OCCOCn1cnc2c(=O)[nH]c(N)nc21 [VCV, Valacyclovir HCl]
- average number of PLFs (HSV-1-infected hiNSCs [1]): significantly reduced; also recorded: decrease
- average size (area) of PLFs (HSV-1-infected hiNSCs [1]): significantly reduced; also recorded: decrease
- expression of AD mediators APP, BACE1, PSEN1 and PSEN2 (qPCR) ([2]; 200 μM VCV at D0): nearly rescued all markers back to control values
- expression of AD mediators APP, BACE1, PSEN1 and PSEN2 (qPCR) ([2]; 200 μM VCV at D1 (24 hours after infection)): partial rescue
- HSV-1 infection (HSV-1; 200 μM VCV at D0 (concurrently with HSV-1 infection), MOI 0.0001): almost completely abolished infection
- HSV-1 infection (immunostaining and qPCR for HSV-UL29) (HSV-1; 200 μM VCV, both drug regimens (D0 or D1), HSV-1 MOI 0.0001, hiNSCs, HCl): significant decrease; also recorded: reduces HSV-1 infection
- GFAP expression (immunostaining and qPCR) (HSV-1-infected hiNSCs [3]; 200 μM VCV at D0): almost completely restored
- pro-inflammatory mediator TNFα (HSV-1-infected hiNSCs [3]; 200 μM VCV, both D0 and D1 dosing regimens): significantly reduced
- reactive glia formation (hiNSCs [4]): increased reactive glia formation
- HSV-1 latency associated transcript (LAT) (HSV-1-infected hiNSCs [5]): significant increase
- PSEN2 expression (HSV-1-infected hiNSCs [5]): significant increase
- glial fibrillary acidic protein (GFAP) expression (HSV-1-infected hiNSCs [5]): increase
- effect on hiNSCs in the absence of virus (hiNSCs [6]): no discernible effect
